Assay [1] has as its system EGFR Del19/T790M/C797S (H1975-clone #28). The assay can be described thus: EGFR degradation HTRF assay, H1975-clone #28 DTC cells. The class given is cell-based. An outline of the steps:
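Compounds (top 10 uM, 5-fold, 8 points, 0.2% DMSO) incubated 16 h at 37 °C on homozygous clones: #23 Del19/C797S, #28 Del19/T790M/C797S, exogenous EGFR only in H1975. HTRF on lysates quantified remaining EGFR relative to DMSO; four-parameter fit gave DC50 and Dmax.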
(In general: In TR-FRET formats the signal depends on donor and acceptor labels being close together.)

Assay [2] has as its target T1, EGFR L858R/T790M/C797S (BaF3-LTC cells) (Homo sapiens, UniProt P00533, C797S/L858R/T790M).
T1 construct: expressed in transfected cells; host or cells: BaF3
The assay can be described thus: EGFR degradation HTRF assay, BaF3-LTC cells. It counts as cell-based. An outline of the steps:
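Cells treated 16 h at 37 °C, 5% CO2 in medium with 0.2% DMSO; top final concentration 10 uM, 5-fold dilution, 8 doses. Lysates read by HTRF (665/620 nm); degradation % versus DMSO high control, DC50 from four-parameter fit, Dmax as maximal degradation.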

Where [3] appears, read: H1975 # 28 DTC cells; EGFR degradation, IC50 (DC50) from curve fit; read-out: DC50(nM) H1975 # 28 DTC.
Where [4] appears, read: H1975 # 28 DTC cells; maximum percentage of inhibition (degradation).
[5] abbreviates: BaF3-LTC cells; EGFR degradation, IC50 (DC50) from curve fit; read-out: DC50(nM) BaF3-LTC.
[6] abbreviates: BaF3-LTC cells; maximum percentage of inhibition (degradation); read-out: Dmax (%) BaF3-LTC.
[7] abbreviates: read-out: DC50(nM) H1975 # 28 DTC; H1975 # 28 DTC cells; EGFR degradation, IC50 (DC50) from curve fit.
Where [8] appears, read: BaF3-LTC cells; maximum percentage of inhibition (degradation).
[9] abbreviates: read-out: DC50(nM) BaF3-LTC; BaF3-LTC cells; EGFR degradation, IC50 (DC50) from curve fit.
Setting [10] is: read-out: Dmax (%) BaF3-LTC, BaF3-LTC cells; maximum percentage of inhibition (degradation).

Where two headings read alike, the source gives them in different places.

T1 sequence (P00533 25-1210 T790M/C797S/L858R): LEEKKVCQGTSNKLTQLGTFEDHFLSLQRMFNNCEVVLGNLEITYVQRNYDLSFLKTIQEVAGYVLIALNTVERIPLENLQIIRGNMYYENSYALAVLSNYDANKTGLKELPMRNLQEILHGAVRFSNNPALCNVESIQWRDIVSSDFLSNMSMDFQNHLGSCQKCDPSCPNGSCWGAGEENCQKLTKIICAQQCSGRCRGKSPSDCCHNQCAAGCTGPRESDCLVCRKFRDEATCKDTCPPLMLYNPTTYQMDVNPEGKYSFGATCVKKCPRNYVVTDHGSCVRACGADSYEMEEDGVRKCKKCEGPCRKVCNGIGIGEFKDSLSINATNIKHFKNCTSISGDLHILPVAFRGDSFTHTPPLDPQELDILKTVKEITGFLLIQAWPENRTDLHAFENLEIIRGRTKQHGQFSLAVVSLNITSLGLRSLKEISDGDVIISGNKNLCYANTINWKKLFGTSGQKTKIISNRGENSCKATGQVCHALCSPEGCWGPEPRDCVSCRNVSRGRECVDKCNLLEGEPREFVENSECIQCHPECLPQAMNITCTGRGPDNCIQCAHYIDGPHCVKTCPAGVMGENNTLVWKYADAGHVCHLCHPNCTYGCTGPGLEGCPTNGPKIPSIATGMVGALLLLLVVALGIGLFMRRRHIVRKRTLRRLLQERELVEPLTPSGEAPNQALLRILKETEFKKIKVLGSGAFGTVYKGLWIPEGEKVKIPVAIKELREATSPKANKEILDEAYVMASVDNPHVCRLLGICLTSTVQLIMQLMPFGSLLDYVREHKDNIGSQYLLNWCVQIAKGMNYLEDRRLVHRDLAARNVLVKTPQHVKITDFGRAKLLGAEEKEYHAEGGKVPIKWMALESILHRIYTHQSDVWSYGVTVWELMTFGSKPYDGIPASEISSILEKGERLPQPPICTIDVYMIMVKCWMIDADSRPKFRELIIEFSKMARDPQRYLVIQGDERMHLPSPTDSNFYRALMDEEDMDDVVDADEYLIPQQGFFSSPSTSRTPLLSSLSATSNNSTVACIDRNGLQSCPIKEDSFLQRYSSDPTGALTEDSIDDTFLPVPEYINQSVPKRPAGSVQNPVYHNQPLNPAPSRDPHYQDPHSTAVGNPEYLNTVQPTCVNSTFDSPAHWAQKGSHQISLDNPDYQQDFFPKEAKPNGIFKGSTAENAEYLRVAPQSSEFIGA

For orientation: DC50 means the midpoint of the concentration-degradation curve. The term Dmax denotes the greatest extent of degradation seen. Regarding `CCc1cc(Nc2ncc(Br)c(Nc3ccc4nc(C)ccc4c3P(C)(C)=O)n2)c(OC2CC2)cc1N1CCC(N2CCN(CCc3cc4oc(=O)n(C5CCC(=O)NC5=O)c4cc3F)CC2)CC1` (stereo not drawn) [Example 601, 3-(6-(2-(4-(1-(4-((5-bromo-4-((5-(dimethylphosphoryl)-2-methylquinolin-6-yl)amino)pyrimidin-2-yl)amino)-5-cyclopropoxy-2-ethylphenyl)piperidin-4-yl)piperazin-1-yl)ethyl)-5-fluoro-2-oxobenzo[d]oxazol-3(2H)-yl)piperidine-2,6-dione], the 50% degradation concentration (DC50) was 0.632 nM in assay [1] (setting [3]) and 8.64 nM in assay [2] (setting [5]). In addition, the “Dmax (%) H1975 # 28 DTC” value in assay [1] (setting [4]) is 77.35%. In assay [2] (setting [6]), the Dmax was 89.5%.

Take `Cc1ccc2c(P(C)(C)=O)c(Nc3nc(Nc4cc(C)c(N5CCC(N6CCN(CCc7cccc8c7n(C)c(=O)n8C7CCC(=O)NC7=O)CC6)CC5)cc4OC4CC4)ncc3Br)ccc2n1` (stereo not drawn) [Example 602, 3-(4-(2-(4-(1-(4-((5-bromo-4-((5-(dimethylphosphoryl)-2-methylquinolin-6-yl)amino)pyrimidin-2-yl)amino)-5-cyclopropoxy-2-methylphenyl)piperidin-4-yl)piperazin-1-yl)ethyl)-3-methyl-2-oxo-2,3-dihydro-1H-benzo[d]imidazol-1-yl)piperidine-2,6-dione]: the results for the DC50 in assay [1] (setting [3]) and in assay [2] (setting [5]) were 0.913 nM and 3.66 nM, respectively. The “Dmax (%) H1975 # 28 DTC” value in assay [1] (setting [4]) was determined as 77.98%. Moreover, in assay [2] (setting [6]), the Dmax was found to be 93%.

Take `CCOc1cc(N2CCC(N3CCN(CCc4ccc(F)c5c4n(CC)c(=O)n5C4CCC(=O)NC4=O)CC3)CC2)c(CC)cc1Nc1ncc(Br)c(Nc2cc(F)c3nc(CC)ccc3c2P(C)(C)=O)n1` (stereo not drawn) [Example 603, 3-(4-(2-(4-(1-(4-((5-bromo-4-((5-(dimethylphosphoryl)-2-ethyl-8-fluoroquinolin-6-yl)amino)pyrimidin-2-yl)amino)-5-ethoxy-2-ethylphenyl)piperidin-4-yl)piperazin-1-yl)ethyl)-3-ethyl-7-fluoro-2-oxo-2,3-dihydro-1H-benzo[d]imidazol-1-yl)piperidine-2,6-dione]: the DC50 came to 1.57 nM in assay [1] (setting [3]) and 7.62 nM in assay [2] (setting [5]). In assay [1] (setting [4]), the “Dmax (%) H1975 # 28 DTC” value is on record as 81.2%. Also, the Dmax in assay [2] (setting [6]) is 91.2%.

With `CCOc1cc(N2CCC(N3CCN(CCN(C)c4cccc5c4oc(=O)n5C4CCC(=O)NC4=O)CC3)CC2)c(CC)cc1Nc1ncc(Br)c(Nc2cc(F)c3nc(CC)ccc3c2P(C)(C)=O)n1` (stereo not drawn) [Example 604, 3-(7-((2-(4-(1-(4-((5-bromo-4-((5-(dimethylphosphoryl)-2-ethyl-8-fluoroquinolin-6-yl)amino)pyrimidin-2-yl)amino)-5-ethoxy-2-ethylphenyl)piperidin-4-yl)piperazin-1-yl)ethyl)(methyl)amino)-2-oxobenzo[d]oxazol-3(2H)-yl)piperidine-2,6-dione], the DC50 in assay [1] (setting [3]) amounted to 0.764 nM; in assay [2] (setting [5]) it was 18.5 nM. In addition, the “Dmax (%) H1975 # 28 DTC” value in assay [1] (setting [4]) is on record as 69.1%. For the same compound, the greatest degradation seen (Dmax) in assay [2] (setting [6]) stood at 86.1%.

As for `CCc1cc(Nc2ncc(Br)c(Nc3ccc4nc(C)ccc4c3P(C)(C)=O)n2)c(OC2CC2)cc1N1CCC(N2CCN(CCCc3cc(F)cc4c3oc(=O)n4C3CCC(=O)NC3=O)CC2)CC1` (stereo not drawn) [Example 607, 3-(7-(3-(4-(1-(4-((5-bromo-4-((5-(dimethylphosphoryl)-2-methylquinolin-6-yl)amino)pyrimidin-2-yl)amino)-5-cyclopropoxy-2-ethylphenyl)piperidin-4-yl)piperazin-1-yl)propyl)-5-fluoro-2-oxobenzo[d]oxazol-3(2H)-yl)piperidine-2,6-dione], the DC50 in assay [1] (setting [3]) was determined as 1.07 nM; in assay [2] (setting [5]) it was 14.2 nM. For the same compound, the “Dmax (%) H1975 # 28 DTC” value in assay [1] (setting [4]) is on record as 78.76%. Also, the Dmax in assay [2] (setting [6]) came out at 86.8%.

For the compound `CCOc1cc(N2CCC(N3CCN(CCc4cc5oc(=O)n(C6CCC(=O)NC6=O)c5cc4F)CC3)CC2)c(CC)cc1Nc1ncc(Br)c(Nc2ccc3nc(CC)ncc3c2P(C)(C)=O)n1` (stereo not drawn) [Example 609, 3-(6-(2-(4-(1-(4-((5-bromo-4-((5-(dimethylphosphoryl)-2-ethylquinazolin-6-yl)amino)pyrimidin-2-yl)amino)-5-ethoxy-2-ethylphenyl)piperidin-4-yl)piperazin-1-yl)ethyl)-5-fluoro-2-oxobenzo[d]oxazol-3(2H)-yl)piperidine-2,6-dione], in assay [1] (setting [4]), the “Dmax (%) H1975 # 28 DTC” value was determined as 74.7%. Besides, the DC50 in assay [1] (setting [7]) was determined as 3.07 nM; in assay [2] (setting [9]), 11.5 nM. The “Dmax (%) BaF3-LTC” value in assay [2] (setting [8]) stood at 89.57%.

For the compound `CCOc1cc(N2CCC(N3CCN(C[C@H]4CCN(c5cccc6c5oc(=O)n6C5CCC(=O)NC5=O)C4)CC3)CC2)c(CC)cc1Nc1ncc(Br)c(Nc2ccc3c(=O)n(CC)ncc3c2P(C)(C)=O)n1` (stereo partly drawn) [Example 611, 3-(7-((R)-3-((4-(1-(4-((5-bromo-4-((5-(dimethylphosphoryl)-2-ethyl-1-oxo-1,2-dihydrophthalazin-6-yl)amino)pyrimidin-2-yl)amino)-5-ethoxy-2-ethylphenyl)piperidin-4-yl)piperazin-1-yl)methyl)pyrrolidin-1-yl)-2-oxobenzo[d]oxazol-3(2H)-yl)piperidine-2,6-dione], the values for the DC50 in assay [1] (setting [3]) and in assay [2] (setting [5]) were 5.69 nM and 83.4 nM, respectively. Further, in assay [1] (setting [4]), the “Dmax (%) H1975 # 28 DTC” value was found to be 70.37%. In addition, the “Dmax (%) BaF3-LTC” value in assay [2] (setting [8]) was 86.27%.

As to `CCOc1cc(N2CCC(N3CCN(CCC4CCN(c5ccc6c(oc(=O)n6C6CCC(=O)NC6=O)c5F)CC4)CC3)CC2)c(CC)cc1Nc1ncc(Br)c(Nc2ccc3nc(CC)ncc3c2P(C)(C)=O)n1` (stereo not drawn) [Example 612, 3-(6-(4-(2-(4-(1-(4-((5-bromo-4-((5-(dimethylphosphoryl)-2-ethylquinazolin-6-yl)amino)pyrimidin-2-yl)amino)-5-ethoxy-2-ethylphenyl)piperidin-4-yl)piperazin-1-yl)ethyl)piperidin-1-yl)-7-fluoro-2-oxobenzo[d]oxazol-3(2H)-yl)piperidine-2,6-dione], the “Dmax (%) H1975 # 28 DTC” value in assay [1] (setting [4]) is listed as 72.14%. Besides, the values for the DC50 in assay [1] (setting [7]) and in assay [2] (setting [9]) were 0.656 nM and 7.68 nM, respectively. The Dmax in assay [2] (setting [10]) is 93.2%.

`CCOc1cc(N2CCC(N3CCN(CCc4c(F)cc5c(oc(=O)n5C5CCC(=O)NC5=O)c4C)CC3)CC2)c(CC)cc1Nc1ncc(Br)c(Nc2ccc3c(=O)n(CC)ncc3c2P(C)(C)=O)n1` (stereo not drawn) [Example 613, 3-(6-(2-(4-(1-(4-((5-bromo-4-((5-(dimethylphosphoryl)-2-ethyl-1-oxo-1,2-dihydrophthalazin-6-yl)amino)pyrimidin-2-yl)amino)-5-ethoxy-2-ethylphenyl)piperidin-4-yl)piperazin-1-yl)ethyl)-5-fluoro-7-methyl-2-oxobenzo[d]oxazol-3(2H)-yl)piperidine-2,6-dione]: the DC50 in assay [1] (setting [3]) came out at 3.55 nM; in assay [2] (setting [5]), 17.3 nM. Further, the “Dmax (%) H1975 # 28 DTC” value in assay [1] (setting [4]) is 71.47%. Moreover, the Dmax in assay [2] (setting [6]) worked out at 88.6%.

`CCOc1cc(N2CCC(N3CCN(CCc4c(F)ccc5c4oc(=O)n5C4CCC(=O)NC4=O)CC3)CC2)c(CC)cc1Nc1ncc(Br)c(Nc2cc(F)c3nc(CC)ccc3c2P(C)(C)=O)n1` (stereo not drawn) [Example 614, 3-(7-(2-(4-(1-(4-((5-bromo-4-((5-(dimethylphosphoryl)-2-ethyl-8-fluoroquinolin-6-yl)amino)pyrimidin-2-yl)amino)-5-ethoxy-2-ethylphenyl)piperidin-4-yl)piperazin-1-yl)ethyl)-6-fluoro-2-oxobenzo[d]oxazol-3(2H)-yl)piperidine-2,6-dione]: the DC50 was 2.61 nM in assay [1] (setting [3]) and 23.8 nM in assay [2] (setting [5]). Also, the “Dmax (%) H1975 # 28 DTC” value in assay [1] (setting [4]) is recorded as 74%. In addition, the “Dmax (%) BaF3-LTC” value in assay [2] (setting [8]) is 80.74%.

For `CCOc1cc(N2CCC(N3CCN(CCCc4cccc5c4oc(=O)n5C4CCC(=O)NC4=O)CC3)CC2)c(CC)cc1Nc1ncc(Br)c(Nc2ccc3nc(CC)ncc3c2P(C)(C)=O)n1` (stereo not drawn) [Example 615, 3-(7-(3-(4-(1-(4-((5-bromo-4-((5-(dimethylphosphoryl)-2-ethylquinazolin-6-yl)amino)pyrimidin-2-yl)amino)-5-ethoxy-2-ethylphenyl)piperidin-4-yl)piperazin-1-yl)propyl)-2-oxobenzo[d]oxazol-3(2H)-yl)piperidine-2,6-dione], the “Dmax (%) H1975 # 28 DTC” value in assay [1] (setting [4]) came to 72.36%. The DC50 stood at 0.921 nM in assay [1] (setting [7]) and 7.91 nM in assay [2] (setting [9]). Moreover, the Dmax in assay [2] (setting [10]) was 91%.

Take `CCOc1cc(N2CCC(N3CCN(CCc4cc5oc(=O)n(C6CCC(=O)NC6=O)c5cc4C(F)(F)F)CC3)CC2)c(CC)cc1Nc1ncc(Br)c(Nc2ccc3nc(CC)ccc3c2P(C)(C)=O)n1` (stereo not drawn) [Example 616, 3-(6-(2-(4-(1-(4-((5-bromo-4-((5-(dimethylphosphoryl)-2-ethylquinolin-6-yl)amino)pyrimidin-2-yl)amino)-5-ethoxy-2-ethylphenyl)piperidin-4-yl)piperazin-1-yl)ethyl)-2-oxo-5-(trifluoromethyl)benzo[d]oxazol-3(2H)-yl)piperidine-2,6-dione]: the DC50 in assay [1] (setting [3]) stood at 5.75 nM; in assay [2] (setting [5]) it was 43.1 nM. Further, the “Dmax (%) H1975 # 28 DTC” value in assay [1] (setting [4]) came to 70.93%. Also, the greatest degradation seen (Dmax) in assay [2] (setting [6]) amounted to 83.8%.

Values taken from patent US20230265116A1, “DEGRADATION OF (EGFR) BY CONJUGATION OF EGFR INHIBITORS WITH E3 LIGASE LIGAND AND METHODS OF USE” (BEIGENE, LTD., priority 2020, published 2023).
